Experiment: Solubility in aqueous solution
Assay type: physicochemical
Text: In some cases, the DHEAS will associate with or form a complex with the divalent cation which is less soluble than the DHEAS sodium salt.

## Dehydroepiandrosterone sulfate [DHEAS-Na]
  solubility: about 17 mg/ml
